# Experimental data taken from patent publication US20240115549A1, “TREATMENT OF MENTAL DISORDERS” (GH Research Ireland Limited, priority 2022, published 2024).
# Test system: Escherichia coli WP2 uvrA pKM101
# Assay: Bacterial mutation test, Escherichia coli
# Format: cell-based
# Details: up to 5000 pg/plate, with and without S-9
# Excerpt: These conditions included treatments at concentrations up to […] (the maximum recommended concentration according to current regulatory guidelines), in the absence and in the presence of a rat liver metabolic activation system (S-9).
smiles,measurement,value
COc1ccc2[nH]cc(CCN(C)C)c2c1 [5-MeO-DMT],Induction of mutation,did not induce mutation
